Measured values as given in US20260027065A1, “LIVER/ADIPOSE TISSUE DUAL-TARGETING COMPOSITE NANO-DRUG CARRIER” (IUCF-HYU (INDUSTRY-UNIVERSITY COOPERATION FOUNDATION …, priority 2022, published 2026).

Test system: animal models of obesity-induced type 2 diabetes
Test: Treatment effect (body weight, insulin resistance, biomarkers), type 2 diabetes model
Format: in vivo, C57BL/6J mice
Conditions: ZnPP 0.25 mg/kg i.p. once a week for 4 weeks together with HO-1 inducer-encapsulated ATS/PLGA NPs 1 mg/kg i.v.; FIG. 9
Procedure: C57BL/6J mice were purchased from Orient Bio Inc. and acclimated for one week. From week 3, a 60% kcal high fat diet (HFD, Central Lab Animal, Inc.) was mixed with normal diet and fed. From week 6, only HFD was fed, and HFD was additionally fed for 8 weeks. In week 20, it was confirmed that the body weight reached 45 to 55 g, and the fasting blood glucose level also exceeded 250 mg/dl.
After constructing the animal models of obesity-induced type 2 diabetes and the animal models of obesity-induced non-alcoholic steatohepatitis, ATS/PLGA NPs in which 1 mg/kg of heme oxygenase-1 inducer was encapsulated were injected intravenously once a week for 4 weeks. Here, the results of a control administered intravenously with ATS/PLGA NPs (vehicle) in which 1 mg/kg of heme oxygenase-1 inducer was not encapsulated once a week for 4 weeks and a control administered intraperitoneally with 0.25 mg/kg of heme oxygenase-1 inhibitor (ZnPP) once a week for 4 weeks while intravenous administration with ATS/PLGA NPs in which 1 mg/kg of heme oxygenase-1 inducer was encapsulated once a week for 4 weeks were compared. The body weight was measured for 7 weeks, and then the mice were dissected to obtain mRNA and proteins from major organs such as the liver and adipose tissue for biomarker analysis.

Q: For `C=CC1=C(C)c2cc3[n-]c(cc4[n-]c(cc5nc(cc1n2)C(C)=C5C=C)c(C)c4CCC(=O)O)c(CCC(=O)O)c3C.[Zn+2]` [ZnPP], which “Effect on body weight with co-administered HO-1 inhibitor” value is on record?
A: no effect
